Data published in patent publication US20100226981A1, “ORAL DOSAGE FORMS HAVING A HIGH LOADING OF A GABAPENTIN PRODRUG” (XenoPort, Inc., priority 2009, published 2010).

Key:
[1] = dosed either orally or directly into the colon of a mammal; cited from earlier work
[2] = Flow characterization of dry powders and granulations (density, Carr, Hausner, Flodex); assay type: physicochemical; conditions: ungranulated, no water
Text: The flow of dry powders was characterized using a FLODEX™ Powder Flowability Index Test Instrument (Hanson Research Corporation, Chatsworth, Calif.). The instrument was equipped with a cylindrical metal reservoir, which holds the test powder prior to flow testing. The cylindrical reservoir has an inside diameter of 5.7 cm and a length of […]. The bottom end of the reservoir can be closed with removable metal discs. Each disc has a round orifice centered in the disc. Orifice diameters range from 4 mm to 10 mm in 1 mm increments, and from 10 mm to 34 mm in 2 mm increments. Prior to flow testing, the orifice is blocked. Powder is then placed over the blocked orifice. When the orifice is unblocked, powder can flow through the orifice under the force of gravity if the orifice diameter is sufficiently large. Powder that flows through small orifices is considered to have flow properties useful for tableting. For example, a Flodex measurement (Flodex) of less than about 24 mm is typically used for high-speed tableting operations at commercial scale. A Flodex less than about 20 mm is useful for high-speed tableting operations. A Flodex of 18 mm or less is considered especially useful for high throughput tableting operations.
The Flodex is determined by first gently filling the reservoir while the orifice at the bottom is blocked with approximately 70 cc of test powder, while avoiding severe piling, and without vibrating or tapping the powder bed. Next, the orifice is unblocked. This can be accomplished by opening a shutter that is supplied with the instrument. Alternatively, if a shutter is not used, the powder-filled reservoir fitted with a disc can be set on a dry, flat surface to block the orifice. Then, slowly and evenly, the reservoir is lifted to allow the powders to flow. In either procedure, if the powder flows through the orifice, a clear channel is left within the powder bed. […] The flow test is conducted with various orifice sizes until the minimum orifice size for good flow is identified, which is referred to as the Flodex.
The impact of the amount of water used during high shear wet granulation on the strength of granules was determined. Granulations containing either 98 wt-% compound (1), 1 wt-% METHOCELT™-E4M and 1 wt-% SLS, or 97 wt-% compound (1) and 3 wt-% METHOCEL™-E4M, were prepared using from 20 wt-% to 30 wt-% water, dried, and the granule strength measured by determining the air pressure at which the particles began to fracture using a Sympatec particle analyzer (QicPic/RODOS-L/VIBRI-L, Sympatec GmbH, Clausthal-Zellerfeld, DE).
The Main Blend contained 98 wt-% compound (1), 1 wt-% METHOCELT™-E4M, and 1 wt-% SLS. Blend D contained 90 wt-% granules blended with 8 wt-% METHOCEL™-K100M and 2 wt-% magnesium stearate, and Blend E contained 89 wt-% granules blended with 8 wt-% METHOCEL™-K100M and 3 wt-% magnesium stearate and were prepared as described in Example 4.

Bulk Density [2]: 0.329 gm/mL
Carr Index [2]: 27.0
Flodex [2]: >34 mm
Hausner Ratio [2]: 1.37
Tap Density [2]: 0.450 gm/mL
SMILES: CC(OC(=O)NCC1(CC(=O)O)CCCCC1)OC(=O)C(C)C (stereo not drawn) [Compound (1), 1-([(α-Isobutanoyloxyethoxy)carbonyl]aminomethyl)-1-cyclohexane acetic acid]
bioavailability as gabapentin [1]: high bioavailability as gabapentin
